Patent US11400102B2, “Treatment for bacterial infections with salicylic acid analogs” (priority 2019, dated 2022)

What was measured:
[1] = tested on: yersiniabactin; experiment: 13C labeled salicylic acid in infection model, labeled Ybt in mouse urine; format: in vivo; conditions: FIG. 12 right panel
[2] = tested on: yersiniabactin; experiment: 13C labeled salicylic acid incorporation into Ybt in culture; format: cell-based; conditions: FIG. 12 middle panel

## O=C(O)[13c]1[13cH][13cH][13cH][13cH][13c]1O [^13C labeled salicylic acid]
[1]
  labeled compound in mouse urine by mass spectrometry: detectable
[2]
  incorporation of labeled compound into Ybt during culture: incorporated
